6 compounds from patent publication US20210251220A1, “LICE ELIMINATOR” (priority 2018, published 2021) can be followed below.

The series is described as follows: Contact angle of spreading component. Type of series: physicochemical. As to conditions: 10% by weight aqueous solution, droplet on stainless steel plate, θ/2 method (JIS R3257). Here is the method: It is preferred that the contact angle of the spreading component to be mixed in the lice eliminator according to the present invention is 1 to 60°. When the contact angle on a solid surface of the spreading component to be mixed in the lice eliminator according to the present invention is in this range, the lice eliminator spreads wet and is easily taken onto a louse, for example, easily adheres to and spreads out over the outer skin of a louse, without being repelled by the outer skin when brought into contact with the louse, and the effect of exterminating a louse by blocking the louse from the outside, for example, by sealing the spiracle of the louse becomes higher. It is preferred that the contact angle of the spreading component contained in the lice eliminator of the present invention is measured by a θ/2 method or the like in accordance with the method described in JIS R3257 (1999) or the like. When the spreading component is soluble in water and is solid, the contact angle as an aqueous solution, for example, at 10% by weight or the like is measured. When the spreading component is not soluble in water and is in a liquid state, the contact angle is measured as the stock solution, and when the spreading component is soluble in water and is in a liquid state, the contact angle is measured as the stock solution or an aqueous solution at 10% by weight or the like.
A 10% by weight aqueous solution of each spreading component was prepared, and the contact angle when a droplet of the aqueous solution was put on a stainless steel plate was measured with a contact angle meter (CAX-150 manufactured by Kyowa Interface Science Co., Ltd.) by a θ/2 method in accordance with the method described in JIS R3257 (1999).

Turning to `CCCCCCCCCCCCc1ccc(S(=O)(=O)[O-])cc1.[Na+]` [compound 1, Sodium dodecylbenzenesulfonate], the “Contact angle (°) of agent” value stood at 25 °.
With `CCCCCCCCCCCCOS(=O)(=O)[O-].[Na+]` [compound 3, Sodium lauryl sulfate] the figure was 38 °; with `CCCCCCCCCCCC[N+](C)(C)C.[Cl-]` [compound 4, Lauryl trimethyl ammonium chloride], 36 °; with “Monolauric acid polyethylene glycol [compound 10]”, 39 °.
With “Polyethylene glycol monolaurate [compound 9]”, the “Contact angle (°) of agent” value is reported as 34 °.
The same measure for “Polyoxyethylene lauryl ether [compound 8]”: 38 °.
